The values below come from patent US8148373B2, “Compounds” (AstraZeneca AB, priority 2008, dated 2012).

The term inhibition denotes the drop in the measured response relative to a control, in per cent. Read a high inhibition as strong suppression.

Experiment [1] deals with T1, human muscarinic acetylcholine M3 receptor (M3-ACh) (Homo sapiens, UniProt P20309).
T1 construct: expressed in transfected cells; host or cells: CHO-K1 (Chinese Hamster Ovary) cell membranes
Briefly: Muscarinic 3 Receptor Binding Assay, % inhibition specific binding at 1 μM. The conditions noted are these: 1 μM compound, % inhibition specific [3H]-NMS binding. The essentials:
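Competition binding of 0.1 nM [3H]NMS to membranes from CHO-K1 cells expressing human M3, SPA format, with compound at 1 μM in 20 mM HEPES pH 7.4, 5 mM MgCl2, 1% DMSO. Incubated 16 h at room temperature; non-specific binding defined by 1 μM atropine; value is % inhibition of specific binding.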

Experiment [2] addresses T2, Adrenergic β2 (H292 cells) (Homo sapiens, UniProt P07550).
T2 construct: endogenous in cells; host or cells: H292 cells
Briefly: Adrenergic β2 Mediated cAMP Production, single concentration 1 μM. The conditions noted are these: NCI-H292, 1 μM compound, percentage of the maximum response generated by 1E-07M formoterol, read-out: β2 (% effect at 1 μM). It counts as cell-based. In a few lines: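 H292 cells were plated overnight, pre-treated with 300 μM rolipram for 10 min, then exposed to compound at 1 μM final (1% DMSO) for 60 min at room temperature. cAMP in the lysates was measured by AlphaScreen against a standard curve and expressed as % of the maximal response to 1E-07M formoterol.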

T2 sequence (P07550 whole entry): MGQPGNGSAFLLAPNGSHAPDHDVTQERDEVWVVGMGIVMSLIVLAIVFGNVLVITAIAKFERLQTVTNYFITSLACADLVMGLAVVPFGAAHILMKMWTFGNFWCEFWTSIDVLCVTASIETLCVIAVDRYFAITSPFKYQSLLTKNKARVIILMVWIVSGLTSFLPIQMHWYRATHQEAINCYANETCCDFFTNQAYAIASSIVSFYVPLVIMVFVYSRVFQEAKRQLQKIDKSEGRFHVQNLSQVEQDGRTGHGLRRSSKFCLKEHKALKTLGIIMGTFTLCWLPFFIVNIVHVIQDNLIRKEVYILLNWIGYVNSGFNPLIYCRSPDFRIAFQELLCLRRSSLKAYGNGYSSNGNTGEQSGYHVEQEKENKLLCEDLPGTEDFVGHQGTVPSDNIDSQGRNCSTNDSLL
T1 sequence (P20309 whole entry): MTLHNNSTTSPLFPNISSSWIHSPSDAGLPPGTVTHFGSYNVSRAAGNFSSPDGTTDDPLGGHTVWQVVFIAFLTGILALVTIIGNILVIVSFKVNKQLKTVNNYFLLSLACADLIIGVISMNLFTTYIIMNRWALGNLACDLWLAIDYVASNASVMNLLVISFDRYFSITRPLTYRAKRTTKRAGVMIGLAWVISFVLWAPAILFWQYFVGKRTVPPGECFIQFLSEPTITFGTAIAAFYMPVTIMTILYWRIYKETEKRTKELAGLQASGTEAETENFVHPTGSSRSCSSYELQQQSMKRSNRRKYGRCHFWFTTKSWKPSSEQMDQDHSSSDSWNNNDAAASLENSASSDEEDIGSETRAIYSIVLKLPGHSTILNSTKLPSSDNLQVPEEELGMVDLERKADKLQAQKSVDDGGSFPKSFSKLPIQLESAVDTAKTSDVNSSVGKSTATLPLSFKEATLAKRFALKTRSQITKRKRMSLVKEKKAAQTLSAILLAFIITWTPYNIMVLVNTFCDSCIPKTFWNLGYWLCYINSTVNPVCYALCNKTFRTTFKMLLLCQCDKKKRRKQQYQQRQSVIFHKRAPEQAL

Take `O=C(c1cc2ccccc2s1)N1CCOC2(CCN(CCOc3ccc(CNC[C@H](O)c4ccc(O)c5[nH]c(=O)sc45)cc3)CC2)C1` [Example 235, (R)-7-(2-(4-(2-(4-(benzo[b]thiophene-2-carbonyl)-1-oxa-4,9-diazaspiro[5.5]undecan-9-yl)ethoxy)benzylamino)-1-hydroxyethyl)-4-hydroxy-benzo[d]thiazol-2(3H)-one]: the inhibition at 1 µM in experiment [1] was 29%. For the same compound, in experiment [2], the activation at 1 µM came to 97%.
The matching figures for `Cc1cc(C(=O)N2CCOC3(CCN(CCOc4ccc(CNC[C@H](O)c5ccc(O)c6[nH]c(=O)sc56)cc4)CC3)C2)oc1C` [Example 236, (R)-7-(2-(4-(2-(4-(4,5-dimethylfuran-2-carbonyl)-1-oxa-4,9-diazaspiro[5.5]undecan-9-yl)ethoxy)benzylamino)-1-hydroxyethyl)-4-hydroxy-benzo[d]thiazol-2(3H)-one]: 30% and 73%.
The matching figures for `Cc1cccc(C(=O)N2CCOC3(CCN(CCOc4ccc(CNC[C@H](O)c5ccc(O)c6[nH]c(=O)sc56)cc4)CC3)C2)n1` [Example 237, (R)-4-hydroxy-7-(1-hydroxy-2-(4-(2-(4-(6-methylpicolinoyl)-1-oxa-4,9-diazaspiro[5.5]undecan-9-yl)ethoxy)benzylamino)ethyl) benzo[d]thiazol-2(3H)-one]: 46% and 62%.
`Cc1occc1C(=O)N1CCOC2(CCN(CCOc3ccc(CNC[C@H](O)c4ccc(O)c5[nH]c(=O)sc45)cc3)CC2)C1` [Example 238, (R)-4-hydroxy-7-(1-hydroxy-2-(4-(2-(4-(2-methylfuran-3-carbonyl)-1-oxa-4,9-diazaspiro[5.5]undecan-9-yl)ethoxy)benzylamino)ethyl) benzo[d]thiazol-2(3H)-one] yielded an inhibition at 1 µM in experiment [1] of 57%. Moreover, the activation at 1 µM in experiment [2] amounted to 73%.
As for `Cc1ccc(C(=O)N2CCOC3(CCN(CCOc4ccc(CNC[C@H](O)c5ccc(O)c6[nH]c(=O)sc56)cc4)CC3)C2)o1` [Example 239, (R)-4-hydroxy-7-(1-hydroxy-2-(4-(2-(4-(5-methylfuran-2-carbonyl)-1-oxa-4,9-diazaspiro[5.5]undecan-9-yl)ethoxy)benzylamino)ethyl) benzo[d]thiazol-2(3H)-one], the inhibition at 1 µM in experiment [1] was 90%. The activation at 1 µM in experiment [2] stood at 76%.
Taken in the same sequence, the figures for `O=C(COc1ccccc1)N1CCOC2(CCN(CCOc3ccc(CNC[C@H](O)c4ccc(O)c5[nH]c(=O)sc45)cc3)CC2)C1` [Example 240, (R)-4-hydroxy-7-(1-hydroxy-2-(4-(2-(4-(2-phenoxyacetyl)-1-oxa-4,9-diazaspiro[5.5]undecan-9-yl)ethoxy)benzylamino)ethyl) benzo[d]thiazol-2(3H)-one] were 34% and 92%.
The matching figures for `Cc1ccnn1CC(=O)N1CCOC2(CCN(CCOc3ccc(CNC[C@H](O)c4ccc(O)c5[nH]c(=O)sc45)cc3)CC2)C1` [Example 241, (R)-4-hydroxy-7-(1-hydroxy-2-(4-(2-(4-(2-(5-methyl-1H-pyrazol-1-yl)acetyl)-1-oxa-4,9-diazaspiro[5.5]undecan-9-yl)ethoxy)benzylamino)ethyl) benzo[d]thiazol-2(3H)-one]: 11% and 85%.
`Cc1nc(C(=O)N2CCOC3(CCN(CCOc4ccc(CNC[C@H](O)c5ccc(O)c6[nH]c(=O)sc56)cc4)CC3)C2)c(C)s1` [Example 242, (R)-7-(2-(4-(2-(4-(2,5-dimethylthiazole-4-carbonyl)-1-oxa-4,9-diazaspiro[5.5]undecan-9-yl)ethoxy)benzylamino)-1-hydroxyethyl)-4-hydroxy-benzo[d]thiazol-2(3H)-one]: the inhibition at 1 µM in experiment [1] worked out at 83%. In addition, the activation at 1 µM in experiment [2] is 43%.
Regarding `Cc1cc(C(=O)N2CCOC3(CCN(CCOc4ccc(CNC[C@H](O)c5ccc(O)c6[nH]c(=O)sc56)cc4)CC3)C2)c(C)s1` [Example 243, (R)-7-(2-(4-(2-(4-(2,5-dimethylthiophene-3-carbonyl)-1-oxa-4,9-diazaspiro[5.5]undecan-9-yl)ethoxy)benzylamino)-1-hydroxyethyl)-4-hydroxy-benzo[d]thiazol-2(3H)-one], 1 µM produced 78% inhibition in experiment [1]. Moreover, the activation at 1 µM in experiment [2] came out at 84%.
The matching figures for `O=C(COCc1ccccc1)N1CCOC2(CCN(CCOc3ccc(CNC[C@H](O)c4ccc(O)c5[nH]c(=O)sc45)cc3)CC2)C1` [Example 244, (R)-7-(2-(4-(2-(4-(2-(benzyloxy)acetyl)-1-oxa-4,9-diazaspiro[5.5]undecan-9-yl)ethoxy)benzylamino)-1-hydroxyethyl)-4-hydroxy-benzo[d]thiazol-2(3H)-one]: 48% and 60%.
Taken in the same sequence, the figures for `Cc1ccn(CC(=O)N2CCOC3(CCN(CCOc4ccc(CNC[C@H](O)c5ccc(O)c6[nH]c(=O)sc56)cc4)CC3)C2)n1` [Example 245, (R)-4-hydroxy-7-(1-hydroxy-2-(4-(2-(4-(2-(3-methyl-1H-pyrazol-1-yl)acetyl)-1-oxa-4,9-diazaspiro[5.5]undecan-9-yl)ethoxy)benzylamino)ethyl) benzo[d]thiazol-2(3H)-one] were 51% and 76%.
The matching figures for `Cc1sccc1C(=O)N1CCOC2(CCN(CCOc3ccc(CNC[C@H](O)c4ccc(O)c5[nH]c(=O)sc45)cc3)CC2)C1` [Example 246, (R)-4-hydroxy-7-(1-hydroxy-2-(4-(2-(4-(2-methylthiophene-3-carbonyl)-1-oxa-4,9-diazaspiro[5.5]undecan-9-yl)ethoxy)benzylamino)ethyl) benzo[d]thiazol-2(3H)-one]: 38% and 72%.
The compound `O=C(CCOc1ccccc1)N1CCOC2(CCN(CCOc3ccc(CNC[C@H](O)c4ccc(O)c5[nH]c(=O)sc45)cc3)CC2)C1` [Example 247, (R)-4-hydroxy-7-(1-hydroxy-2-(4-(2-(4-(3-phenoxypropanoyl)-1-oxa-4,9-diazaspiro[5.5]undecan-9-yl)ethoxy)benzylamino)ethyl) benzo[d]thiazol-2(3H)-one] showed an inhibition at 1 µM in experiment [1] of 60%. Moreover, the activation at 1 µM in experiment [2] was 75%.
The matching figures for `O=C(CCc1cccs1)N1CCOC2(CCN(CCOc3ccc(CNC[C@H](O)c4ccc(O)c5[nH]c(=O)sc45)cc3)CC2)C1` [Example 248, (R)-4-hydroxy-7-(1-hydroxy-2-(4-(2-(4-(3-(thiophen-2-yl)propanoyl)-1-oxa-4,9-diazaspiro[5.5]undecan-9-yl)ethoxy)benzylamino)ethyl) benzo[d]thiazol-2(3H)-one]: 44% and 70%.
As for `Cc1cc(CC(=O)N2CCOC3(CCN(CCOc4ccc(CNC[C@H](O)c5ccc(O)c6[nH]c(=O)sc56)cc4)CC3)C2)on1` [Example 249, (R)-4-hydroxy-7-(1-hydroxy-2-(4-(2-(4-(2-(3-methylisoxazol-5-yl)acetyl)-1-oxa-4,9-diazaspiro[5.5]undecan-9-yl)ethoxy)benzylamino)ethyl) benzo[d]thiazol-2(3H)-one], the inhibition at 1 µM in experiment [1] is 31%. In addition, the activation at 1 µM in experiment [2] came to 76%.
The matching figures for `O=C(c1ccc2occc2c1)N1CCOC2(CCN(CCOc3ccc(CNC[C@H](O)c4ccc(O)c5[nH]c(=O)sc45)cc3)CC2)C1` [Example 250, (R)-7-(2-(4-(2-(4-(benzofuran-5-carbonyl)-1-oxa-4,9-diazaspiro[5.5]undecan-9-yl)ethoxy)benzylamino)-1-hydroxyethyl)-4-hydroxybenzo[d]thiazol-2(3H)-one]: 91% and 77%.
The matching figures for `Cc1nc(CC(=O)N2CCOC3(CCN(CCOc4ccc(CNC[C@H](O)c5ccc(O)c6[nH]c(=O)sc56)cc4)CC3)C2)cs1` [Example 251, (R)-4-hydroxy-7-(1-hydroxy-2-(4-(2-(4-(2-(2-methylthiazol-4-yl)acetyl)-1-oxa-4,9-diazaspiro[5.5]undecan-9-yl)ethoxy)benzylamino)ethyl) benzo[d]thiazol-2(3H)-one]: 51% and 68%.
Turning to `Cc1nc(C)c(CC(=O)N2CCOC3(CCN(CCOc4ccc(CNC[C@H](O)c5ccc(O)c6[nH]c(=O)sc56)cc4)CC3)C2)s1` [Example 252, (R)-7-(2-(4-(2-(4-(2-(2,4-dimethylthiazol-5-yl)acetyl)-1-oxa-4,9-diazaspiro[5.5]undecan-9-yl)ethoxy)benzylamino)-1-hydroxyethyl)-4-hydroxy-benzo[d]thiazol-2(3H)-one], the inhibition at 1 µM in experiment [1] turned out to be 10%. Besides, the activation at 1 µM in experiment [2] was determined as 88%.
The matching figures for `O=C(c1ccsc1Cl)N1CCOC2(CCN(CCOc3ccc(CNC[C@H](O)c4ccc(O)c5[nH]c(=O)sc45)cc3)CC2)C1` [Example 253, (R)-7-(2-(4-(2-(4-(2-chlorothiophene-3-carbonyl)-1-oxa-4,9-diazaspiro[5.5]undecan-9-yl)ethoxy)benzylamino)-1-hydroxyethyl)-4-hydroxy-benzo[d]thiazol-2(3H)-one]: 35% and 73%.
Taken in the same sequence, the figures for `Cc1csc(C(=O)N2CCOC3(CCN(CCOc4ccc(CNC[C@H](O)c5ccc(O)c6[nH]c(=O)sc56)cc4)CC3)C2)c1` [Example 254, (R)-4-hydroxy-7-(1-hydroxy-2-(4-(2-(4-(4-methylthiophene-2-carbonyl)-1-oxa-4,9-diazaspiro[5.5]undecan-9-yl)ethoxy)benzylamino)ethyl) benzo[d]thiazol-2(3H)-one] were 92% and 71%.
